The values that follow come from patent US12180192B2, “Modulators of THR-β and methods of use thereof” (ALIGOS THERAPEUTICS, INC., priority 2019, dated 2024).

In one assay the target is T1, THR alpha (Homo sapiens, UniProt P10827).
T1 construct: expressed in transfected cells; host or cells: HEK293T (ATCC CRL-3216)
T1 sequence (P10827 1-410 isoform P10827-2): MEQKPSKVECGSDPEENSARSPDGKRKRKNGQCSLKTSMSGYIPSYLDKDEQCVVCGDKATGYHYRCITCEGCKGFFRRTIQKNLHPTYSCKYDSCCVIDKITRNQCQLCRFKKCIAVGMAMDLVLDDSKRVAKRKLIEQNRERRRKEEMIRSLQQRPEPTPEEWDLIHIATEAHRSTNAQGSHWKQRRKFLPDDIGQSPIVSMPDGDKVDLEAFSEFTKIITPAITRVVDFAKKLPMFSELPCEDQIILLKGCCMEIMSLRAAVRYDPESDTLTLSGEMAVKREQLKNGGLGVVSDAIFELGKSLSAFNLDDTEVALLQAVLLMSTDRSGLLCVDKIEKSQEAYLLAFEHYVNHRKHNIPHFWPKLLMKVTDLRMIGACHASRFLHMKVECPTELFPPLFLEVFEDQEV
T1 sequence (P19793 1-462 partner): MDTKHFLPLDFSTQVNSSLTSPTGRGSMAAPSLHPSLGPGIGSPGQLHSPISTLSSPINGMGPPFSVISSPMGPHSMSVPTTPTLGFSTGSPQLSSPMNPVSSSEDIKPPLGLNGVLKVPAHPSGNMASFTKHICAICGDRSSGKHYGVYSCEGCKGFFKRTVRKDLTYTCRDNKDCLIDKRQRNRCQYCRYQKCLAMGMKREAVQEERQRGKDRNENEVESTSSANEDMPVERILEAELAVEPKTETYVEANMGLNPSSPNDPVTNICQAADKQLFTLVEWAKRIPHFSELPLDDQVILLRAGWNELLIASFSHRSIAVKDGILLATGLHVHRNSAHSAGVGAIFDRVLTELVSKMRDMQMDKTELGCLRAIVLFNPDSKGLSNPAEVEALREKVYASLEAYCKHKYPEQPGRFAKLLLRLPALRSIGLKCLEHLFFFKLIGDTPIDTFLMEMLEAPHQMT
Put plainly: HEK293T THR alpha/RXR luciferase reporter assay (Assay 2). In kind it is cell-based. The following applies: Assay 2; for Emax: HEK-293T, read-out: Activity category Assay 2 THRα (Emax); for Emax / Activity category Assay 2 THRα (Emax): Table 5, THRα; for EC50: Table 4, THR-alpha, read-out: Activity category Assay 2 (EC50, THR-alpha agonist activity). The essentials:
(§1)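 HEK293T cells transiently transfected with TRE-luciferase reporter, RXR, and THR alpha or THR beta plasmid; ten five-fold compound dilutions from DMSO added for 18-24 h. One-Glo luminescence read; percent agonism normalized between negative and positive controls.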

A further assay addresses T2, THR beta (Homo sapiens, UniProt P10828).
T2 construct: expressed in transfected cells; host or cells: HEK293T (ATCC CRL-3216)
T2 sequence (P10828 1-461): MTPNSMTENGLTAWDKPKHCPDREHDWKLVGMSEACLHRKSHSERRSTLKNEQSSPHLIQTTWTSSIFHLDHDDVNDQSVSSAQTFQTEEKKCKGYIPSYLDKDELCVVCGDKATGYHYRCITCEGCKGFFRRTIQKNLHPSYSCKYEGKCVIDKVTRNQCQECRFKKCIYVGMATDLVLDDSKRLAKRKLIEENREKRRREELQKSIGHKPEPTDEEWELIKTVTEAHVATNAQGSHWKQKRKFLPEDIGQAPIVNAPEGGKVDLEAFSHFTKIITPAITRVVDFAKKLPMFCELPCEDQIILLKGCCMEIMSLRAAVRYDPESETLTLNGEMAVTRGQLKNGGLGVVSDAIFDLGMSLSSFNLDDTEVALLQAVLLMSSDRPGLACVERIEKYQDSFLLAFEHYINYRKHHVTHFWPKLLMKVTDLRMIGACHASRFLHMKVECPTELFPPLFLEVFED
T2 sequence (P19793 1-462 partner): T1 sequence (P19793 1-462 partner)
In words: HEK293T THR beta/RXR luciferase reporter assay (Assay 2). It counts as cell-based. The following applies: for Emax: HEK-293T, read-out: Activity category Assay 2 THRβ (Emax); for Emax / Activity category Assay 2 THRβ (Emax): Table 5, Assay 2, THRβ; for EC50: THR-beta, HEK293T reporter assay, read-out: Activity category Assay 2 (EC50, THR-beta agonist). A digest of the protocol: as §1
A general note: In a reporter assay the amount or activity of a reporter protein is the signal.

Assay [1] addresses T3, human thyroid receptor alpha ligand-binding domain (LBD) (Homo sapiens, UniProt P10827).
T3 construct: purchased Invitrogen
Put plainly: TR-FRET thyroid receptor alpha coactivator assay (THR biochemical assay, Assay 1). Conditions: for EC50: Table 4, THR-alpha, read-out: Activity category Assay 1 (EC50, THR-alpha agonist activity); for Emax / Activity category Assay 1 THRα (Emax): Table 5, THRα; for Emax: read-out: Activity category Assay 1 THRα (Emax). The essentials: (§2)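 GST-tagged human TRβ or TRα LBD, 1 nM final (stated for β), with fluorescein-SRC2-2 coactivator peptide (200 nM) and Tb-anti-GST antibody (2 nM). Agonists serially diluted, 1% DMSO final. 1 h incubation at rt in the dark; TR-FRET read as rise in fluorescein and drop in terbium emission.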
Background: Time-resolved FRET reads energy transfer from a long-lived donor to a nearby acceptor.

The target of assay [2] is T4, human thyroid receptor beta ligand-binding domain (LBD) (Homo sapiens, UniProt P10828).
T4 construct: purchased Invitrogen
T4 sequence (P10828 217-461 limits assumed): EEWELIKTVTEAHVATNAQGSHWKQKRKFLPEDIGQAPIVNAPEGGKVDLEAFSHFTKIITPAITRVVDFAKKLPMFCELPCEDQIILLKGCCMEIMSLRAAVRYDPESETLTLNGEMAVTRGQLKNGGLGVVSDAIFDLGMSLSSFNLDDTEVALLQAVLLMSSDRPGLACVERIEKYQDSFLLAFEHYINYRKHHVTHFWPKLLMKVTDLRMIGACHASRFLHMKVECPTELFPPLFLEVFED
In words: TR-FRET thyroid receptor beta coactivator assay (THR biochemical assay, Assay 1). The following applies: for EC50: THR-beta, TR-FRET coactivator assay, read-out: Activity category Assay 1 (EC50, THR-beta agonist); for Emax / Activity category Assay 1 THRβ (Emax): Table 5, Assay 1, THRβ; for Emax: read-out: Activity category Assay 1 THRβ (Emax). The essentials: as §2

For `CC(c1cc(Oc2c(Cl)cc(-n3nc(N)c(=O)[nH]c3=O)cc2Cl)n[nH]c1=O)C1CC(F)(F)C1` (single isomer, unassigned) [Compound 61-A, 6-amino-2-[3,5-dichloro-4-([5-[1-(3,3-difluorocyclobutyl)ethyl]-6-oxo-1H-pyridazin-3-yl]oxy)phenyl]-4H-1,2,4-tri-azine-3,5-dione], the Emax (in general, the greatest response seen or fitted, relative to the assay's reference) at THR alpha is 50 to 75%; at THR beta it was greater than 75%; in assay [1], 50 to 75%; in assay [2], 50 to 75%. In addition, the EC50 (commonly the concentration giving half of the maximal effect) on THR alpha was 50 to 250 nM; at THR beta it was less than 50 nM; in assay [1], 50 to 250 nM; in assay [2], less than 50 nM.

For the molecule `CC(c1cc(Oc2c(Cl)cc(-n3nc(N)c(=O)[nH]c3=O)cc2Cl)n[nH]c1=O)C1CC(F)(F)C1` (single isomer, unassigned) [Compound 61-B, 6-amino-2-[3,5-dichloro-4-([5-[1-(3,3-difluorocyclobutyl)ethyl]-6-oxo-1H-pyridazin-3-yl]oxy)phenyl]-4H-1,2,4-tri-azine-3,5-dione], at THR alpha, the half-maximal effective concentration (EC50) lay within 250 to 1000 nM and the “Activity category Assay 2 THRα (Emax)” value is “C (Emax<50%)”. Moreover, at THR beta, the EC50 was in the range of 250 to 1000 nM and the “Activity category Assay 2 THRβ (Emax)” value is “A (Emax≥75%)”. In assay [1], the EC50 lay within 1000 to 25000 nM and the “Activity category Assay 1 THRα (Emax)” value was “C (Emax<50%)”. Further, in assay [2], the EC50 lay in the range of 50 to 250 nM and the “Activity category Assay 1 THRβ (Emax)” value was “C (Emax<50%)”.

As for `C[C@H]1C[C@H](c2cc(Oc3c(Cl)cc(-n4nc(N)c(=O)[nH]c4=O)cc3Cl)n[nH]c2=O)C1` (single isomer, unassigned) [Compound 86-A, 6-Amino-2-(3,5-dichloro-4-((5-((1r,3r)-3-methylcyclobutyl)-6-oxo-1,6-dihydropyridazin-3-yl)oxy)phenyl)-1,2,4-triazine-3,5(2H,4H)-dione], the Emax was 50 to 75% on THR alpha, greater than 75% at THR beta, less than 50% in assay [1] and less than 50% in assay [2]. The EC50 lay in the range of 250 to 1000 nM at THR alpha, 50 to 250 nM at THR beta, 250 to 1000 nM in assay [1] and 50 to 250 nM in assay [2].

Take `CC(c1ccccc1)c1cc(Oc2c(Cl)cc(-n3nc(N)c(=O)[nH]c3=O)cc2Cl)n[nH]c1=O` (single isomer, unassigned) [Compound 164, 6-Amino-2-(3,5-dichloro-4-((6-oxo-5-(1-phenylethyl)-1,6-dihydropyridazin-3-yl)oxy)phenyl)-1,2,4-triazine-3,5(2H,4H)-dione]: the Emax at THR alpha was 50 to 75%; at THR beta it was greater than 75%. Further, the EC50 on THR alpha is 250 to 1000 nM; in assay [1], 50 to 250 nM; in assay [2], less than 50 nM. For the same molecule, the “Activity category Assay 1 THRα (Emax)” value in assay [1] is given as “C (Emax<50%)”. Further, the “Activity category Assay 1 THRβ (Emax)” value in assay [2] was “C (Emax<50%)”.

For `CC(C)c1c[nH]c2ccc(Oc3c(Cl)cc(-n4nc(C#N)c(=O)[nH]c4=O)cc3Cl)cc12` [Compound 1, 2-[3,5-dichloro-4-[(3-isopropyl-1H-indol-5-yl)oxy]-phenyl]-3,5-dioxo-4H-1,2,4-tri-azine-6-carbonitrile], the Emax is greater than 75% on THR alpha, greater than 75% on THR beta, less than 50% in assay [1] and 50 to 75% in assay [2]. Also, the EC50 at THR alpha was 250 to 1000 nM; on THR beta, 50 to 250 nM; in assay [1], less than 50 nM; in assay [2], less than 50 nM.

Take `CC(C)c1cc(Oc2c(Cl)cc(-c3nn(C)c(=O)[nH]c3=O)cc2Cl)n[nH]c1=O` [Compound 16, 6-[3,5-dichloro-4-[(5-isopropyl-6-oxo-1H-pyridazin-3-yl)oxy]phenyl]-2-methyl-4H-1,2,4-triazine-3,5-dione]: the Emax on THR alpha is greater than 75%; on THR beta it was greater than 75%; in assay [1], less than 50%; in assay [2], 50 to 75%. In addition, the EC50 at THR alpha was 250 to 1000 nM; at THR beta, 50 to 250 nM; in assay [1], 250 to 1000 nM; in assay [2], 50 to 250 nM.

On to `CC(C)c1c[nH]c2ccc(Oc3c(Cl)cc(-n4nc(C#N)c(=O)[nH]c4=O)cc3Cl)nc12` [Compound 18], for which the Emax was 50 to 75% on THR alpha, greater than 75% at THR beta, less than 50% in assay [1] and less than 50% in assay [2]. Also, the EC50 on THR alpha was 1000 to 10000 nM; on THR beta, 1000 to 10000 nM; in assay [1], greater than 25000 nM; in assay [2], less than 50 nM.

Turning to `Cc1cc(-n2nc(C#N)c(=O)[nH]c2=O)cc(C)c1Cc1ccc2[nH]cc(C(C)C)c2n1` [Compound 31, 2-[4-[(3-isopropyl-1H-pyrrolo[3,2-b]pyridin-5-yl)methyl]-3,5-dimethyl-phenyl]-3,5-dioxo-1,2,4-triazine-6-carbonitrile], the Emax on THR alpha is greater than 75%; on THR beta it was greater than 75%; in assay [1] it was less than 50%; in assay [2], 50 to 75%. Besides, the EC50 on THR alpha was 1000 to 10000 nM; on THR beta, 250 to 1000 nM; in assay [1], less than 50 nM; in assay [2], less than 50 nM.

On to `CCC(C)c1cc(Oc2c(Cl)cc(-n3nc(N)c(=O)[nH]c3=O)cc2Cl)n[nH]c1=O` (stereo not shown) [Compound 39-A], for which, on THR alpha, the EC50 is 50 to 250 nM and the “Activity category Assay 2 THRα (Emax)” value is listed as “A (Emax≥75%)”. In addition, on THR beta, the EC50 was 50 to 250 nM and the “Activity category Assay 2 THRβ (Emax)” value is “A (Emax≥75%)”. Moreover, in assay [1], the EC50 lay within 250 to 1000 nM; the “Activity category Assay 1 THRα (Emax)” value is “B (Emax≥50%, and <75%)”. Besides, in assay [2], the EC50 was less than 50 nM and the “Activity category Assay 1 THRβ (Emax)” value is listed as “C (Emax<50%)”.

On to `CCC(C)c1cc(Oc2c(Cl)cc(-n3nc(N)c(=O)[nH]c3=O)cc2Cl)n[nH]c1=O` (stereo not shown) [Compound 39-B], for which, on THR alpha, the EC50 is less than 50 nM and the “Activity category Assay 2 THRα (Emax)” value was “A (Emax≥75%)”. On THR beta, the EC50 was less than 50 nM and the “Activity category Assay 2 THRβ (Emax)” value was “A (Emax≥75%)”. For the same molecule, in assay [1], the EC50 is 50 to 250 nM; the “Activity category Assay 1 THRα (Emax)” value is “B (Emax≥50%, and <75%)”. Moreover, in assay [2], the EC50 was less than 50 nM; the “Activity category Assay 1 THRβ (Emax)” value is “B (Emax≥50%, and <75%)”.
